What was measured:
Assay type in all cases: binding
[1] = target: T1, GCN5 (Homo sapiens, UniProt Q92830); test: Thermal shift assay, GCN5
T1 construct: purchased in-house (SGC bromodomain thermal shift / AlphaScreen panel)
Procedure: (§1) II.VII Thermal Shift Assay[6]
(§2) Thermal melting experiments were carried out using an Mx3005p Real Time PCR machine (Stratagene). Proteins were buffered in 10 mM HEPES pH 7.5, 500 mM NaCl and assayed in a 96-well plate at a final concentration of 2 μM in 20 μL volume. Compounds were added at a final concentration of 50 μM. SYPRO Orange (Molecular Probes) was added as a fluorescence probe at a dilution of 1:1000. Excitation and emission filters for the SYPRO-Orange dye were set to 465 nm and 590 nm, respectively. The temperature was raised with a step of 3 °C per minute from 25 °C to 96 °C and fluorescence readings were taken at each interval. The unfolding curves were fitted using the Boltzmann equation to determine the middle point of the transition.

[2] = target: T2, SMARCA4 (Homo sapiens, UniProt P51532); test: Thermal shift assay, SMARCA4
T2 construct: purchased in-house (SGC bromodomain thermal shift / AlphaScreen panel)
T2 sequence (P51532 whole entry): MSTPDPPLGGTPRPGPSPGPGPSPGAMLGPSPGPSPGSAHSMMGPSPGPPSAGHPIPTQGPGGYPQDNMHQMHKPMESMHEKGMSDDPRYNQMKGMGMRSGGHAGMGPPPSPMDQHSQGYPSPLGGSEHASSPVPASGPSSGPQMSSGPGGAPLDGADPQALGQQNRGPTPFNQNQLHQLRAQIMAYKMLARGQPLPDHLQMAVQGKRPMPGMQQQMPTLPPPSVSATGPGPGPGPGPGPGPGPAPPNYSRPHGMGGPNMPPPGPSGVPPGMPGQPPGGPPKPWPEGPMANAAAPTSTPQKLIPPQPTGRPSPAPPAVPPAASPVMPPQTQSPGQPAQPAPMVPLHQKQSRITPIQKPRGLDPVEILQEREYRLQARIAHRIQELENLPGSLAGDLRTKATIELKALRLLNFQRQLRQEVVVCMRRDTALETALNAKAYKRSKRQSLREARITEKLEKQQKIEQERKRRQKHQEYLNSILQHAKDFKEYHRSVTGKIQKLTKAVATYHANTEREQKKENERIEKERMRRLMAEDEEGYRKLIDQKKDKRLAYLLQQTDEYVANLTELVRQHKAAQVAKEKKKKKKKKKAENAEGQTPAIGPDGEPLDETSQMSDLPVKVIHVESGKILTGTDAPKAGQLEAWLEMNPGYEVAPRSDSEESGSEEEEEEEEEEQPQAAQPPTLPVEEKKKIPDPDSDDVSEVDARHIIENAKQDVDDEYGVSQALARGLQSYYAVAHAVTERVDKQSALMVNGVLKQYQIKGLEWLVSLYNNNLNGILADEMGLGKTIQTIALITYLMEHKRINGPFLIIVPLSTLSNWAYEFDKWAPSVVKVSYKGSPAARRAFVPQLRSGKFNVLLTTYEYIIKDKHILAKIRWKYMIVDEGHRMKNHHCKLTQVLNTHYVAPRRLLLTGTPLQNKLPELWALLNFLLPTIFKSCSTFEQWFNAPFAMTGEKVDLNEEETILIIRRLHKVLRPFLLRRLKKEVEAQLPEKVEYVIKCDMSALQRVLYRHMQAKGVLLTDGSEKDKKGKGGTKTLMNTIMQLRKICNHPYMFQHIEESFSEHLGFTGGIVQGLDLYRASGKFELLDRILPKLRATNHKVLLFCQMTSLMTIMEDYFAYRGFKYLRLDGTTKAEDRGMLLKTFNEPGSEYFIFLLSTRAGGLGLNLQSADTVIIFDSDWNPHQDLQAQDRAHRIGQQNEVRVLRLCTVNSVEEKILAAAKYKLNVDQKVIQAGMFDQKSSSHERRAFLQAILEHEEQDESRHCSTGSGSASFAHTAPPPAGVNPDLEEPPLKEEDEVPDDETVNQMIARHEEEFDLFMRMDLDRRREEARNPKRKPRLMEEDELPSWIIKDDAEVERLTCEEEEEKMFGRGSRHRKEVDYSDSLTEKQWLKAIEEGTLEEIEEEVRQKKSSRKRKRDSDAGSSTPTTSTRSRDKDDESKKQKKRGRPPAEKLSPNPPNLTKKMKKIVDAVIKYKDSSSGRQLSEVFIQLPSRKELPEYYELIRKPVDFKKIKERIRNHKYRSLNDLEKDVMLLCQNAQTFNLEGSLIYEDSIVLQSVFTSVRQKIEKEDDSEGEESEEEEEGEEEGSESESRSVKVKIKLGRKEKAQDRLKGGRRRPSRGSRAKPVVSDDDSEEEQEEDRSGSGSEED

[3] = target: T3, CREBBP (Homo sapiens, UniProt Q92793); test: Thermal shift assay, CREBBP
T3 construct: purchased in-house (SGC bromodomain thermal shift / AlphaScreen panel)

[4] = target: T4, BAZ1A (Homo sapiens, UniProt Q9NRL2); test: Thermal shift assay, BAZ1A
T4 construct: purchased in-house (SGC bromodomain thermal shift / AlphaScreen panel)
Procedure: as §1, §2

[5] = target: T5, BRD4(2) (Homo sapiens, UniProt O60885); test: Thermal shift assay, BRD4(2)
T5 construct: BRD4(2); purchased in-house (SGC bromodomain thermal shift / AlphaScreen panel)
Procedure: as §1, §2

[6] = target: CECR2 (Homo sapiens, UniProt Q9BXF3); test: Thermal shift assay, CECR2; parameters: purchased in-house (SGC bromodomain thermal shift / AlphaScreen panel)
CECR2, sequence (Q9BXF3 whole entry): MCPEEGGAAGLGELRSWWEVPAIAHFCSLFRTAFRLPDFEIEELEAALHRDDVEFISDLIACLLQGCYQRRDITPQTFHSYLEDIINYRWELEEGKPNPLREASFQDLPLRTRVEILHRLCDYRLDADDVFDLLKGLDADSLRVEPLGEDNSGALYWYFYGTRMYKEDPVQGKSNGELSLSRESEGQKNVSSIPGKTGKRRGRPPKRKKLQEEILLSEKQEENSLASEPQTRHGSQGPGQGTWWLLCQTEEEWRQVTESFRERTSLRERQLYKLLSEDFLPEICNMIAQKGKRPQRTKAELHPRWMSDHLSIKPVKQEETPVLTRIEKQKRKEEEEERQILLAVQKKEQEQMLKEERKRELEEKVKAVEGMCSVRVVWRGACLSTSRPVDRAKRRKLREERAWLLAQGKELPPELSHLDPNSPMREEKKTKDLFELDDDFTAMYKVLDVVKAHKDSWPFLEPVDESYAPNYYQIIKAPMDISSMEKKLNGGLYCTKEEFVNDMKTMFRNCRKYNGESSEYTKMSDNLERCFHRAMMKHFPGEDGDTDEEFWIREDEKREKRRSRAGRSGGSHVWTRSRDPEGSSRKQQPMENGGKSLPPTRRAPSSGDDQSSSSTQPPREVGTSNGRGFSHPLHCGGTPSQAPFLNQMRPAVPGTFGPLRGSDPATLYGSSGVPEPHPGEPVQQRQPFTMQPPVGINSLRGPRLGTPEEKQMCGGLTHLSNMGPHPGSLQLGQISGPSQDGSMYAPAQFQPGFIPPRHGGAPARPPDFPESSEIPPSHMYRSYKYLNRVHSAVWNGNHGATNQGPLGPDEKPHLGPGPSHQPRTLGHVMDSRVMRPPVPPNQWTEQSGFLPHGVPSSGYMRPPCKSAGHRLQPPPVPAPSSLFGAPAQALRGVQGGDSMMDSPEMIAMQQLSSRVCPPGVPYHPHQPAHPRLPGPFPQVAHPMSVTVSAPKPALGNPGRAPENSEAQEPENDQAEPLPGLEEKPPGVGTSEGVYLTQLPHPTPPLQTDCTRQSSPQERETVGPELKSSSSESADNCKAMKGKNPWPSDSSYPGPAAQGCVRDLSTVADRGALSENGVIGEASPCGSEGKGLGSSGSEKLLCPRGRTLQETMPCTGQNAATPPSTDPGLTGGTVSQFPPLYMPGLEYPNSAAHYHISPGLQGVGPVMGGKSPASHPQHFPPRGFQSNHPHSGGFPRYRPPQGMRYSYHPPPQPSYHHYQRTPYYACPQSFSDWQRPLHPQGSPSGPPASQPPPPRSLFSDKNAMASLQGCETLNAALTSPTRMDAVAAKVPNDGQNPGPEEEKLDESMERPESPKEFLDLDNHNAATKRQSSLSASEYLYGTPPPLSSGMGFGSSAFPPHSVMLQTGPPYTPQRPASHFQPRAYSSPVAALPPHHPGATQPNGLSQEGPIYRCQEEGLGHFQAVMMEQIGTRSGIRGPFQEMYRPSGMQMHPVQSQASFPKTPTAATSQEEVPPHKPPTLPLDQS

[7] = target: T6, PB1(2) (Homo sapiens, UniProt Q86U86); test: Thermal shift assay, PB1(2)
T6 construct: PB1(2); purchased in-house (SGC bromodomain thermal shift / AlphaScreen panel)
T6 sequence (Q86U86 178-291 limits assumed): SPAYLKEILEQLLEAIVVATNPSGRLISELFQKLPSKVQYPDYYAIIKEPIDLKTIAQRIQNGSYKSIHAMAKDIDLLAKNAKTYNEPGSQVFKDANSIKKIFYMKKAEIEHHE

[8] = target: T7, TAF1L(2) (Homo sapiens, UniProt Q8IZX4); test: Thermal shift assay, TAF1L(2)
T7 construct: Bromosporine with recombinant human bromodomain proteins; made in house
T7 sequence (Q8IZX4 1517-1626 limits assumed): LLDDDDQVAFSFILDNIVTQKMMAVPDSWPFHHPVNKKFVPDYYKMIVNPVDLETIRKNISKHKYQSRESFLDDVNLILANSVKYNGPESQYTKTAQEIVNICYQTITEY
Procedure: as §1, §2

[9] = target: T8, BRD2(2) (Homo sapiens, UniProt P25440); test: Thermal shift assay, BRD2(2)
T8 construct: BRD2(2); purchased in-house (SGC bromodomain thermal shift / AlphaScreen panel)
T8 sequence (P25440 344-455 limits assumed): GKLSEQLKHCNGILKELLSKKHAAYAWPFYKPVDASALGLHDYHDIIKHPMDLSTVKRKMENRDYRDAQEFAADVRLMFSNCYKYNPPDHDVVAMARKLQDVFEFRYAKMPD

[10] = target: T9, BRPF3 (Homo sapiens, UniProt Q9ULD4); test: Thermal shift assay, BRPF3
T9 construct: purchased in-house (SGC bromodomain thermal shift / AlphaScreen panel)
T9 sequence (Q9ULD4 1-1205): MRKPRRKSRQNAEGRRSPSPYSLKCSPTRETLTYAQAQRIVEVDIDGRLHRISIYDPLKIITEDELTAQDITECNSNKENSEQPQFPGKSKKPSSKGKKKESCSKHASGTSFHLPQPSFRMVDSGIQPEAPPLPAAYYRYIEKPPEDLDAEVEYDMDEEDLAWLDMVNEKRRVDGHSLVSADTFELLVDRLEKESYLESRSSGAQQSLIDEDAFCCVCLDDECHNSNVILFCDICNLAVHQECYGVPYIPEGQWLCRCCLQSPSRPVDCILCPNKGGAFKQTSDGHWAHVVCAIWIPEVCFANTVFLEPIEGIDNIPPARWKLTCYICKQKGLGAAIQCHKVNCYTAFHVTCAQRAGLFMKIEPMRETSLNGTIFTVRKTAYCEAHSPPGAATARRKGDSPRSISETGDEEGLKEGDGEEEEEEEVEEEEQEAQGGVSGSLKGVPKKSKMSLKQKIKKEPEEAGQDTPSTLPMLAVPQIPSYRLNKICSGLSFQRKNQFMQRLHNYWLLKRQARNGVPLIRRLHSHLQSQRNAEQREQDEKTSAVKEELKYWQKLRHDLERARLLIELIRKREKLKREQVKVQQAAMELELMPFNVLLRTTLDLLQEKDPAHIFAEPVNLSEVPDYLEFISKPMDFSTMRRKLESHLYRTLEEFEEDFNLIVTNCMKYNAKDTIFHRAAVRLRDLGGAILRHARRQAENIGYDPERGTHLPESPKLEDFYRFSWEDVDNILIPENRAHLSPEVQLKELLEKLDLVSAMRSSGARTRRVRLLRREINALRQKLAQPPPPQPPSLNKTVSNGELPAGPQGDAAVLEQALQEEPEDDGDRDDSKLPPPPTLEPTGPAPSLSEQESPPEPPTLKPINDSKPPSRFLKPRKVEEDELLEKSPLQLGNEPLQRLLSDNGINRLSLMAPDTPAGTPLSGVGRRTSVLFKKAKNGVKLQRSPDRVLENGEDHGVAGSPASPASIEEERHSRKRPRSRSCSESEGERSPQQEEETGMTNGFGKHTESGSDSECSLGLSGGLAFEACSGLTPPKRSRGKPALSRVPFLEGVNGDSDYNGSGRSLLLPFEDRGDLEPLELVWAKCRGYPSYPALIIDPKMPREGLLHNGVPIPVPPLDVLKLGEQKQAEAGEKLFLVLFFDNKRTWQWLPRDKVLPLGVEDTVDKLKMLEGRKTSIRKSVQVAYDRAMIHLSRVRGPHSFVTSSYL
Procedure: as §1, §2

[11] = target: T10, BRD7 (Homo sapiens, UniProt Q9NPI1); test: Thermal shift assay, BRD7
T10 construct: purchased in-house (SGC bromodomain thermal shift / AlphaScreen panel)
T10 sequence (Q9NPI1 1-651): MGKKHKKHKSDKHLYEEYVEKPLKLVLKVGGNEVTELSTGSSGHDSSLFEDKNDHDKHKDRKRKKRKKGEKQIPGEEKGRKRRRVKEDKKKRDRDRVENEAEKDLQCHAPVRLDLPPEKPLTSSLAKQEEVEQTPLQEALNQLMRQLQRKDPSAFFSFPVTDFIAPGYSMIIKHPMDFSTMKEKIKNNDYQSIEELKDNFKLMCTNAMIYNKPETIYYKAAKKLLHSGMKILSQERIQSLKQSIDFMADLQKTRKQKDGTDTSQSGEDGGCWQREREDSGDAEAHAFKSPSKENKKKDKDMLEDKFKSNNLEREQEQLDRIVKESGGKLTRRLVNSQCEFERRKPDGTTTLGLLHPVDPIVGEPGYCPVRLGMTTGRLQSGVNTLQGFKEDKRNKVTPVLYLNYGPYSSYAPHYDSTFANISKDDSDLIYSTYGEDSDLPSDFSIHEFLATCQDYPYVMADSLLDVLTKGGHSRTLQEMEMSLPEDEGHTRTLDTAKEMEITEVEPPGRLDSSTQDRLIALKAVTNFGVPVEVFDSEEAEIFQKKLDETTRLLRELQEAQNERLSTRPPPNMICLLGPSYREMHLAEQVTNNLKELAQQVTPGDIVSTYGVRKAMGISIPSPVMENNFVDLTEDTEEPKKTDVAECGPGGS
Procedure: as §1, §2

T1 sequence (Q92830 whole entry): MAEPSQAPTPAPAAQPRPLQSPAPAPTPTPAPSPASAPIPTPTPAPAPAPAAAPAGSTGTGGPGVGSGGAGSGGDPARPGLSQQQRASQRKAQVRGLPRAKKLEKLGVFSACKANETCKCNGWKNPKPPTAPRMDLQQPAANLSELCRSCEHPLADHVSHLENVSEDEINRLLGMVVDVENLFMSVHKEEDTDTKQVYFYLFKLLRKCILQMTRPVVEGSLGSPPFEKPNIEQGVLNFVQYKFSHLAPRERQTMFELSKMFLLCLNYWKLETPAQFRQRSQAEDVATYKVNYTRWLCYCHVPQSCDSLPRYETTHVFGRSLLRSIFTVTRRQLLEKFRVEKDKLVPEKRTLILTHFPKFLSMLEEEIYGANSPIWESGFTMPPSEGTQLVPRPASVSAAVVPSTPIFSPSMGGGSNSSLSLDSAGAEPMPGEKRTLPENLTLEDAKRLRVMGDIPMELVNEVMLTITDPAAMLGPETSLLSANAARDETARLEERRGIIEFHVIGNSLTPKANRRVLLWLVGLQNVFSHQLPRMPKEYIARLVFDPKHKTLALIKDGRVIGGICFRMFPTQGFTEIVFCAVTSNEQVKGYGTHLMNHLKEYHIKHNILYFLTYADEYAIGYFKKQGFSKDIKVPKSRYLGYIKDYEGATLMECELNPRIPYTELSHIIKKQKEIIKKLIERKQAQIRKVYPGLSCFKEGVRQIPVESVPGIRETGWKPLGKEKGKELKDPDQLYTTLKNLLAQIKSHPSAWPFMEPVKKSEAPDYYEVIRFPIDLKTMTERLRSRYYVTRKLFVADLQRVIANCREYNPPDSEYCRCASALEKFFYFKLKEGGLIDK

## CCOC(=O)Nc1cc(-c2ccc(C)c(NS(C)(=O)=O)c2)nn2c(C)nnc12 [Bromosporine, reference compound]
[1]; 10 µM compound concentration
  Thermal stabilisation, GCN5: 0.925
[2]; 10 µM compound concentration
  Thermal stabilisation, SMARCA4: 0.12
[3]; 10 µM compound concentration
  Thermal stabilisation, CREBBP: 3.31
[4]; 10 µM compound concentration
  Thermal stabilisation, BAZ1A: -0.77
[5]; 10 µM compound concentration
  Thermal stabilisation, BRD4(2): 6.575
[6]; 10 µM compound concentration
  Thermal stabilisation, CECR2: 11.42
[7]; 10 µM compound concentration
  Thermal stabilisation, PB1(2): 0.105
[8]; 10 µM compound concentration
  Thermal stabilisation, TAF1L(2): 4.83
[9]; 10 µM compound concentration
  Thermal stabilisation, BRD2(2): 5.8
[10]; 10 µM compound concentration
  Thermal stabilisation, BRPF3: 1
[11]; 10 µM compound concentration
  Thermal stabilisation, BRD7: 8.48

## COC(=O)c1ccc(C(=O)Nc2ccc3[nH]c(CN4CCCCC4)nc3c2)cc1 [Compound 1]
[1]; 50 μM compound
  Thermal stabilisation, GCN5: 0.145
[2]; 50 μM compound
  Thermal stabilisation, SMARCA4: 0.135
[3]; 50 μM compound
  Thermal stabilisation, CREBBP: 0.675
[4]; 50 μM compound
  Thermal stabilisation, BAZ1A: 1.085
[5]; 50 μM compound
  Thermal stabilisation, BRD4(2): 0.715
[6]; 50 μM compound
  Thermal stabilisation, CECR2: 1.28
[7]; 50 μM compound
  Thermal stabilisation, PB1(2): 0.105
[8]; 50 μM compound
  Thermal stabilisation, TAF1L(2): -0.065
[9]; 50 μM compound
  Thermal stabilisation, BRD2(2): 0.55
[10]; 50 μM compound
  Thermal stabilisation, BRPF3: 1.015
[11]; 50 μM compound
  Thermal stabilisation, BRD7: 0.57

## C[C@H]1CCCN1Cc1nc2cc(NC(=O)c3ccc4c(cnn4C)c3)ccc2[nH]1 [Compound 92]
[1]; 50 μM compound
  Thermal stabilisation, GCN5: -0.225
[2]; 50 μM compound
  Thermal stabilisation, SMARCA4: 0.035
[3]; 50 μM compound
  Thermal stabilisation, CREBBP: -0.075
[4]; 50 μM compound
  Thermal stabilisation, BAZ1A: -0.26
[5]; 50 μM compound
  Thermal stabilisation, BRD4(2): 0.1
[6]; 50 μM compound
  Thermal stabilisation, CECR2: 1.205
[7]; 50 μM compound
  Thermal stabilisation, PB1(2): -0.17
[8]; 50 μM compound
  Thermal stabilisation, TAF1L(2): -0.48
[9]; 50 μM compound
  Thermal stabilisation, BRD2(2): 0.19
[10]; 50 μM compound
  Thermal stabilisation, BRPF3: -0.245
[11]; 50 μM compound
  Thermal stabilisation, BRD7: -0.08

— PMC6348381, “Discovery of an MLLT1/3 YEATS Domain Chemical Probe” (Angewandte Chemie (International Ed. in English), 2018)
